Experimental data published in patent US4740465A, “Heat-resistant sarcosine oxidase N and process for producing the same” (Noda Institute for Scientific Research, priority 1985, dated 1988).

How the values were obtained:
[1] = biological target: T1, heat-resistant sarcosine oxidase N from Bacillus sp. NS-129 (present enzyme) (Bacillus sp., UniProt P23342); experiment: Inhibition of heat-resistant sarcosine oxidase N; format: biochemical; conditions: inhibitor at 2 mM
T1 construct: the present enzyme is ordinarily present within the cells; made in house; host or cells: Bacillus sp; NS-129 (FERM BP-671), the native producer; purified from the cells
T1 sequence (P23342 1-387): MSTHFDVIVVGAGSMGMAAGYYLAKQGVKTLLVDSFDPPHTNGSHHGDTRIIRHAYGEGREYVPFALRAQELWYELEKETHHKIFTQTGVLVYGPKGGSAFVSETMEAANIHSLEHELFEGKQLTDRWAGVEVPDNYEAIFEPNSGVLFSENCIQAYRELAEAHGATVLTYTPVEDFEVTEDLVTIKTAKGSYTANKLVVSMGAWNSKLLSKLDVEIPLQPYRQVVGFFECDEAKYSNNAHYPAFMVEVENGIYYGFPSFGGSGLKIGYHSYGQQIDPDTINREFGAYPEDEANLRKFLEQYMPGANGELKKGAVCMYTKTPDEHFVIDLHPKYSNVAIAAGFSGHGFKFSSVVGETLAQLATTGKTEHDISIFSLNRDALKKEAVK

[2] = biological target: Known enzyme*2: the sarcosine oxidase described in J. Biochem. 89, 599 (1981) JAPAN (Corynebacterium sp., UniProt Q50LF2); conditions: read-out: Km value for sarcosine; 37° C., pH 7.7; Table 1, known enzyme*2; cited from earlier work
[3] = substrate: CNCC(=O)O; experiment: Km determination of heat-resistant sarcosine oxidase N (present enzyme); format: biochemical, Bacillus sp. NS-129; conditions: other: 37° C., pH 7.7 (phosphate buffer solution)
Procedure: First method: Sarcosine is oxidatively decomposed using the present enzyme and the resulting formaldehyde is determined by colorimetry.
To 0.3 ml of a 0.2 M sarcosine solution were added 0.1 ml of a 0.3 M phosphate buffer solution (pH 7.7) and 0.1 ml of a solution containing an appropriate concentration of the present enzyme. They were subjected to reaction at 37° C. for 10 minutes. The reaction was stopped by addition of 0.5 ml of a 1.0 N acetic acid solution. Thereto was added 3 ml of a color reagent (pH 6.5) containing 0.02% (V/V) of acetylacetone and 10% (W/V) of diammonium hydrogen phosphate. The resulting mixture was subjected to color development at 37° C. for 40 minutes. The absorbance of the resulting color at 410 nm was measured using a photoelectric photometer.
Second method: Sarcosine is oxidatively decomposed using the present enzyme and the resulting hydrogen peroxide (H2 O2) is determined by colorimetry.
0.1 ml of a solution containing an appropriate concentration of the present enzyme was added to a mixture of 0.5 ml of a 0.2 M sarcosine solution, 0.1 ml of a 0.3 M phosphate buffer solution (pH 7.7), 0.1 ml of a 0.2% 2,4-dichlorophenol sulfonate solution, 0.1 ml of a 70 mg/100 ml 4-aminoantipyrine solution and 0.1 ml of a 70 units/ml peroxidase solution. […] The absorbance of the resulting color at 510 nm was measured using a photoelectric photometer.

## CCN1C(=O)C=CC1=O [N-ethylmaleimide]
[1]
  Inhibition of the enzyme: strongly inhibited

## O=C(O)CI [monoiodoacetic acid]
[1]
  Inhibition of the enzyme: strongly inhibited

## CNCC(=O)O [sarcosine, N-methylglycine]
[2]
  Km: 3.4 mM

B1: heat-resistant sarcosine oxidase N from Bacillus sp. NS-129 (present enzyme) (Bacillus sp. NS-129) (protein)
chain: MSTHFDVIVVGAGSMGMAAGYYLAKQGVKTLLVDSFDPPHTNGSHHGDTRIIRHAYGEGREYVPFALRAQELWYELEKETHHKIFTQTGVLVYGPKGGSAFVSETMEAANIHSLEHELFEGKQLTDRWAGVEVPDNYEAIFEPNSGVLFSENCIQAYRELAEAHGATVLTYTPVEDFEVTEDLVTIKTAKGSYTANKLVVSMGAWNSKLLSKLDVEIPLQPYRQVVGFFECDEAKYSNNAHYPAFMVEVENGIYYGFPSFGGSGLKIGYHSYGQQIDPDTINREFGAYPEDEANLRKFLEQYMPGANGELKKGAVCMYTKTPDEHFVIDLHPKYSNVAIAAGFSGHGFKFSSVVGETLAQLATTGKTEHDISIFSLNRDALKKEAVK
notes: the present enzyme is ordinarily present within the cells; made in house; host or cells: Bacillus sp; NS-129 (FERM BP-671), the native producer; purified from the cells
[3]
  Km: 4.7 mM
